The record followed here is EPA's ToxValDB 9.5 (doi:10.2903/j.efsa.2018.5288).

The structures appear in SMILES notation. Converted amounts (≈) assume the structure as drawn.

The test system of series [1] is Mus musculus. The following applies: chronic; duration: 18 months; oral; diet; neurology.
For series [2], the system named is Lepomis macrochirus. The following applies: acute; duration: 96 hours; mortality.
Series [3] relates to Colinus virginianus.
In series [4] the test system is Anas platyrhynchos. The following applies: short-term; mortality.
Series [5] deals with Apis mellifera. The following applies: acute, mortality.
Series [6] has as its system Rattus norvegicus.

One may read the NOAEL as the highest tested level that showed no adverse finding. By LC50 is commonly meant the concentration lethal to half of the exposed cells or organisms. High values mean lower toxicity, low ones greater toxicity. `CCCCC(CC)COC(=O)[C@@H](C)Oc1ccc(Cl)cc1Cl` (stereo not given in full) [Dichlorprop-P-2-ethylhexyl]: the NOAEL in series [1] stood at 6 mg/kg-day; in series [6] (developmental, development) it was 80 mg/kg-day; in series [6] (reproduction developmental, body weight), 20 mg/kg-day. The same molecule registered an LC50 in series [2] of 7.9 µg/mL (≈ 22.7 µM). Besides, the LD50 in series [3] (acute, oral, mortality) is 1010 mg/kg-day; in series [4], greater than 928 mg/kg-day; in series [5] (dermal), greater than 180 µg/piece; in series [5] (oral, unspecified), greater than 178 µg/piece; in series [6] (acute, mortality) it was 824 mg/kg-day. The NOEL in series [3] (reproduction developmental) came out at 101 mg/kg-day.
